Data taken from patent publication US9427691B2, “Antimicrobial air filter” (PTI Technologies, Inc., priority 2014, dated 2016).

What was measured:
Format in all cases: cell-based
[1] = system: Staphylococcus aureus (ATCC #6538); assay: quantitative test for bacterial growth on treated air filter media; conditions: for # of Bacteria Recovered / % Reduction / Log Reduction (S): air filter media saturated with solution and dried, 18 hours at 37 C
Method: There are various anti-microbial agents that are available for application to the air filter media 16. […] To determine the effectiveness of an antimicrobial agent with regard to bacteria, samples of air filter media 16 were treated with various solutions of antimicrobial agents and subjected to a quantitative test. In the quantitative test for bacterial growth, an air filter media sample was saturated with a solution of an antimicrobial agent and allowed to dry. The air filter media sample was then placed in a sealed container and a 0.2 mL inoculum of Staphylococcus aureus (ATCC #6538) was placed, in microdroplets, on the surface of the air filter media sample. A solution having a 0.05% concentration of polysorbate 80 was added to the inoculum as a wetting agent. The air filter media sample was then incubated for 18 hours at a temperature of 37 C°. After incubation, 20 mL of […] broth was added to the container, and the container was shaken. The bacteria in the resulting liquid were then quantified using a series of dilution plates.

[2] = system: Trichoderma virens fungus; assay: antifungal test AATCC Test Method 30-2013 on treated air filter media
Method: (§1) Air filter media samples treated with the aforementioned antimicrobial solutions were then tested for antifungal properties using the common American Association of Textile Chemists and Colorists (AATCC) Test Method 30-2013. […] A larger growth-free zone indicates higher antifungal properties, and a higher surface inhibition indicates higher antifungal properties. The test was performed for both Aspergillus niger and Trichoderma virens species of fungus.

[3] = system: Aspergillus niger fungus; assay: as above
Method: as §1

| Compound | # of Bacteria Recovered [1] | % Reduction [1] [%] | Log Reduction (S) [1] | effectiveness at inhibiting bacterial growth (in words) [1] | effectiveness at inhibiting fungal growth (in words) [2] | Growth-Free Zone in MM ([2]; treated filter media) [MM] | Surface Inhibition ([2]; treated filter media) | effectiveness at inhibiting fungal growth (in words) [3] | Growth-Free Zone in MM ([3]; treated filter media) [MM] | Surface Inhibition ([3]; treated filter media) |
| --- | --- | --- | --- | --- | --- | --- | --- | --- | --- | --- |
| [Cl][Ag] [2% silver chloride, silver chloride] | 1.81 × 10^4 | 98.6 | 1.8 |  |  |  |  |  |  |  |
| Cc1ccc(S(=O)(=O)C(I)I)cc1 [1% diiodomethyl-p-tolyl sulfone, diiodomethyl-p-tolyl sulfone] | <2.00 × 10^1 | >99.9 | >4.8 | most effective | limited in its effectiveness | 0 | 50 | did not inhibit any growth | 0 | 0 |
